Measurements taken from the supplement of paper PMC10307832.

Legend:
Assay in all cases: relative viability (nuclei count vs DMSO), 5 days (fraction); higher = more cells survive
EKVX = system: EKVX
Method in brief: (§1)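 Relative viability equals treated-well nuclei counts divided by vehicle-well nuclei counts. Counts came from 4× images of lung cancer cell lines grown in 1536-well plates for 5 days after pin-tool dosing on the day after seeding. Dosing used one drug alone or a fixed anchor-drug dose plus five library-drug doses (not always all listed) in √10 steps, and values are medians of duplicate plates.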

NCI-H1395 = system: NCI-H1395
Method in brief: as §1

NCI-H2023 = system: NCI-H2023
Method in brief: as §1

NCI-H2342 = system: NCI-H2342
Method in brief: as §1

NCI-H358 = system: NCI-H358
Method in brief: as §1

NCI-H460 = system: NCI-H460
Method in brief: as §1

NCI-H1975 = system: NCI-H1975
Method in brief: as §1

NCI-H1563 = system: NCI-H1563
Method in brief: as §1

CAL-12T = system: CAL-12T
Method in brief: as §1

LCLC-103H = system: LCLC-103H
Method in brief: as §1

NCI-H1755 = system: NCI-H1755
Method in brief: as §1

HCC-366 = system: HCC-366
Method in brief: as §1

NCI-H1734 = system: NCI-H1734
Method in brief: as §1

HCC-15 = system: HCC-15
Method in brief: as §1

LOU-NH91 = system: LOU-NH91
Method in brief: as §1

NCI-H838 = system: NCI-H838
Method in brief: as §1

NCI-H2085 = system: NCI-H2085
Method in brief: as §1

NCI-H1651 = system: NCI-H1651
Method in brief: as §1

NCI-H1650 = system: NCI-H1650
Method in brief: as §1

NCI-H1437 = system: NCI-H1437
Method in brief: as §1

BEN = system: BEN
Method in brief: as §1

NCI-H1355 = system: NCI-H1355
Method in brief: as §1

NCI-H441 = system: NCI-H441
Method in brief: as §1

SMILES: CC(C)Oc1cc(Nc2nc(N[C@@H](C)c3ccc(F)cn3)ncc2Cl)n[nH]1 [AZ23] + COc1cc2c(Oc3ccc(NC(=O)C4(C(=O)Nc5ccc(F)cc5)CC4)cc3F)ccnc2cc1OCCCN1CCOCC1 [Foretinib] (partner 0.25 µM)
- relative viability (EKVX; first compound 0.01 µM): 0.782
- relative viability (EKVX; first compound 0.03162 µM): 0.988
- relative viability (EKVX; first compound 0.3162 µM): 0.565
- relative viability (NCI-H1395; first compound 0.03162 µM): 1.02
- relative viability (NCI-H1395; first compound 0.3162 µM): 1
- relative viability (NCI-H2023; first compound 0.03162 µM): 0.88
- relative viability (NCI-H2023; first compound 0.3162 µM): 0.924
- relative viability (NCI-H2342; first compound 0.01 µM): 0.974
- relative viability (NCI-H2342; first compound 0.03162 µM): 1.07
- relative viability (NCI-H2342; first compound 0.3162 µM): 1.05
- relative viability (NCI-H358; first compound 0.01 µM): 0.786
- relative viability (NCI-H358; first compound 0.03162 µM): 0.829
- relative viability (NCI-H358; first compound 0.3162 µM): 0.727
- relative viability (NCI-H460; first compound 0.01 µM): 1.12
- relative viability (NCI-H460; first compound 0.03162 µM): 1.11
- relative viability (NCI-H460; first compound 0.3162 µM): 1.05
- relative viability (NCI-H1975; first compound 0.01 µM): 1.05
- relative viability (NCI-H1975; first compound 0.03162 µM): 1.14
- relative viability (NCI-H1975; first compound 0.3162 µM): 0.99
- relative viability (NCI-H1563; first compound 0.01 µM): 0.922
- relative viability (NCI-H1563; first compound 0.03162 µM): 1.01
- relative viability (NCI-H1563; first compound 0.3162 µM): 0.993
- relative viability (CAL-12T; first compound 0.03162 µM): 1.14
- relative viability (CAL-12T; first compound 0.3162 µM): 0.884
- relative viability (LCLC-103H; first compound 0.01 µM): 0.729
- relative viability (LCLC-103H; first compound 0.03162 µM): 0.817
- relative viability (LCLC-103H; first compound 0.3162 µM): 0.78
- relative viability (NCI-H1755; first compound 0.01 µM): 0.949
- relative viability (NCI-H1755; first compound 0.03162 µM): 0.94
- relative viability (NCI-H1755; first compound 0.3162 µM): 0.958
- relative viability (HCC-366; first compound 0.01 µM): 1.13
- relative viability (HCC-366; first compound 0.03162 µM): 0.995
- relative viability (HCC-366; first compound 0.3162 µM): 0.933
- relative viability (NCI-H1734; first compound 0.01 µM): 0.803
- relative viability (NCI-H1734; first compound 0.03162 µM): 0.872
- relative viability (NCI-H1734; first compound 0.3162 µM): 0.796
- relative viability (HCC-15; first compound 0.01 µM): 1.16
- relative viability (HCC-15; first compound 0.03162 µM): 1.09
- relative viability (HCC-15; first compound 0.3162 µM): 1.05
- relative viability (LOU-NH91; first compound 0.01 µM): 0.941
- relative viability (LOU-NH91; first compound 0.03162 µM): 0.975
- relative viability (LOU-NH91; first compound 0.3162 µM): 0.927
- relative viability (NCI-H838; first compound 0.01 µM): 1.24
- relative viability (NCI-H838; first compound 0.03162 µM): 1.14
- relative viability (NCI-H838; first compound 0.3162 µM): 0.994
- relative viability (NCI-H2085; first compound 0.01 µM): 0.848
- relative viability (NCI-H2085; first compound 0.03162 µM): 1.22
- relative viability (NCI-H2085; first compound 0.3162 µM): 1.08
- relative viability (NCI-H1651; first compound 0.03162 µM): 0.828
- relative viability (NCI-H1651; first compound 0.3162 µM): 0.844
- relative viability (NCI-H1650; first compound 0.03162 µM): 1.51
- relative viability (NCI-H1650; first compound 0.3162 µM): 1.23
- relative viability (NCI-H1437; first compound 0.01 µM): 1.37
- relative viability (NCI-H1437; first compound 0.03162 µM): 1.35
- relative viability (NCI-H1437; first compound 0.3162 µM): 1.4
- relative viability (BEN; first compound 0.01 µM): 0.625
- relative viability (BEN; first compound 0.03162 µM): 0.807
- relative viability (BEN; first compound 0.3162 µM): 0.772
- relative viability (NCI-H1355; first compound 0.01 µM): 1.21
- relative viability (NCI-H1355; first compound 0.03162 µM): 1.07
- relative viability (NCI-H1355; first compound 0.3162 µM): 1.01
- relative viability (NCI-H441; first compound 0.01 µM): 1.52
- relative viability (NCI-H441; first compound 0.03162 µM): 0.854
- relative viability (NCI-H441; first compound 0.3162 µM): 0.967

SMILES: CC(C)Oc1cc(Nc2nc(N[C@@H](C)c3ccc(F)cn3)ncc2Cl)n[nH]1 [AZ23] + Cc1nc(Nc2ncc(C(=O)Nc3c(C)cccc3Cl)s2)cc(N2CCN(CCO)CC2)n1 [Dasatinib] (partner 0.075 µM)
- relative viability (EKVX; first compound 0.01 µM): 0.503
- relative viability (EKVX; first compound 0.03162 µM): 0.551
- relative viability (EKVX; first compound 0.3162 µM): 0.48
- relative viability (NCI-H1395; first compound 0.03162 µM): 0.481
- relative viability (NCI-H1395; first compound 0.3162 µM): 0.359
- relative viability (NCI-H2023; first compound 0.03162 µM): 0.627
- relative viability (NCI-H2023; first compound 0.3162 µM): 0.57
- relative viability (NCI-H2342; first compound 0.01 µM): 0.299
- relative viability (NCI-H2342; first compound 0.03162 µM): 0.31
- relative viability (NCI-H2342; first compound 0.3162 µM): 0.339
- relative viability (NCI-H358; first compound 0.01 µM): 0.144
- relative viability (NCI-H358; first compound 0.03162 µM): 0.161
- relative viability (NCI-H358; first compound 0.3162 µM): 0.123
- relative viability (NCI-H460; first compound 0.01 µM): 0.295
- relative viability (NCI-H460; first compound 0.03162 µM): 0.592
- relative viability (NCI-H460; first compound 0.3162 µM): 0.503
- relative viability (NCI-H1975; first compound 0.01 µM): 0.453
- relative viability (NCI-H1975; first compound 0.03162 µM): 0.405
- relative viability (NCI-H1975; first compound 0.3162 µM): 0.326
- relative viability (NCI-H1563; first compound 0.01 µM): 0.491
- relative viability (NCI-H1563; first compound 0.03162 µM): 0.533
- relative viability (NCI-H1563; first compound 0.3162 µM): 0.469
- relative viability (CAL-12T; first compound 0.03162 µM): 0.363
- relative viability (CAL-12T; first compound 0.3162 µM): 0.221
- relative viability (LCLC-103H; first compound 0.01 µM): 0.443
- relative viability (LCLC-103H; first compound 0.03162 µM): 0.576
- relative viability (LCLC-103H; first compound 0.3162 µM): 0.499
- relative viability (NCI-H1755; first compound 0.01 µM): 0.456
- relative viability (NCI-H1755; first compound 0.03162 µM): 0.488
- relative viability (NCI-H1755; first compound 0.3162 µM): 0.357
- relative viability (HCC-366; first compound 0.01 µM): 0.58
- relative viability (HCC-366; first compound 0.03162 µM): 0.705
- relative viability (HCC-366; first compound 0.3162 µM): 0.79
- relative viability (NCI-H1734; first compound 0.01 µM): 0.445
- relative viability (NCI-H1734; first compound 0.03162 µM): 0.454
- relative viability (NCI-H1734; first compound 0.3162 µM): 0.448
- relative viability (HCC-15; first compound 0.01 µM): 0.642
- relative viability (HCC-15; first compound 0.03162 µM): 0.712
- relative viability (HCC-15; first compound 0.3162 µM): 0.575
- relative viability (LOU-NH91; first compound 0.01 µM): 0.565
- relative viability (LOU-NH91; first compound 0.03162 µM): 0.589
- relative viability (LOU-NH91; first compound 0.3162 µM): 0.551
- relative viability (NCI-H838; first compound 0.01 µM): 0.255
- relative viability (NCI-H838; first compound 0.03162 µM): 0.317
- relative viability (NCI-H838; first compound 0.3162 µM): 0.293
- relative viability (NCI-H2085; first compound 0.01 µM): 0.232
- relative viability (NCI-H2085; first compound 0.03162 µM): 0.214
- relative viability (NCI-H2085; first compound 0.3162 µM): 0.199
- relative viability (NCI-H1651; first compound 0.03162 µM): 0.471
- relative viability (NCI-H1651; first compound 0.3162 µM): 0.386
- relative viability (NCI-H1650; first compound 0.03162 µM): 0.33
- relative viability (NCI-H1650; first compound 0.3162 µM): 0.299
- relative viability (NCI-H1437; first compound 0.01 µM): 0.354
- relative viability (NCI-H1437; first compound 0.03162 µM): 0.443
- relative viability (NCI-H1437; first compound 0.3162 µM): 0.418
- relative viability (BEN; first compound 0.01 µM): 0.309
- relative viability (BEN; first compound 0.03162 µM): 0.398
- relative viability (BEN; first compound 0.3162 µM): 0.304
- relative viability (NCI-H1355; first compound 0.01 µM): 0.793
- relative viability (NCI-H1355; first compound 0.03162 µM): 0.833
- relative viability (NCI-H1355; first compound 0.3162 µM): 0.633
- relative viability (NCI-H441; first compound 0.01 µM): 0.683
- relative viability (NCI-H441; first compound 0.03162 µM): 0.745
- relative viability (NCI-H441; first compound 0.3162 µM): 0.699
